Experimental data as given in patent publication US6589967B1, “Oxime O-ether compounds and fungicides for agricultural and horticultural use” (Nippon Soda Co. Ltd., priority 1999, dated 2003).

test system: snap bean gray mold fungus (Botrytis cinerea); assay: Test on Kidney Bean Gray Mold Control; format: in vivo; conditions: 50 ppm active ingredient, cut Kidney bean flowers (Nagauzura) dipped, spores sprayed, placed on detached leaves, 7 days at 20° C., high humidity
Method: Now, explanation is made on how the compounds according to the present invention are effective as an active ingredient of a fungicide for controlling various plant diseases with reference to Test examples described later. In the Test Examples, the control efficacy is determined by visually checking the infested state of the test plants at the time of observation, namely, checking the damage to the host plants and the developing state of the disease-causing fungus appeared on leaves, stems, etc. of the test plants, compared to the control test plants which are healthy. Flowers of Kidney bean (variety; Nagauzura) grown in a flat vessel for culturing seedlings are cut, and the cut flowers were dipped into a solution prepared by diluting the emulsifiable concentrate prepared for the compound of the present invention at a concentration of 50 ppm based on the active ingredient. After the dipping, the flowers were dried at a room temperature. Then, spore solution of snap bean gray mold fungus (Botrytis cinerea) was sprayed to the flowers. The flowers sprayed with spores of the gray mold fungus were placed on the leaves which were detached from healthy Kidney bean plants, and those leaves were placed in a room being maintained at 20° C. and high humidity with repeated lighting of 12 hours intervals, and the Kidney bean leaves were incubated in the room for 7 days. Then, the infestation degree by the fungus on the leaves was checked in comparison to the control healthy leaves to determine the control efficacy. […] Note that the compound numbers in the following correspond to the same compound numbers in the Table 1. Compound Nos. 1, 3, 6, 7, 11, 12, 13, 14, 15, 18, 20, 21, 22, 23, 25, 26, 27, 29, 36, 48, 49, 192, 194, 195, 196, 198, 201, 203, 204, 207, 208, 209, 210, 213, 216, 219, 220, 222, 223, 224, 225, 227, 228, 229, 231, 233, 234, 235, 236, 237, 239, 240, 242

| SMILES | control performance (control efficacy) |
| --- | --- |
| COc1cccc(OC)c1CON=Cc1ccccn1 [compound 231] | excellent control performance |
| COc1cccc(OC)c1CON=Cc1cc(C)cc(C)n1.Cl [compound 236] | excellent control performance |
| COCc1cccc(OC)c1CON=Cc1cc(C)cc(C)n1 [compound 237] | excellent control performance |
| COc1ccc(C)c(OC)c1CON=Cc1cc(C)cc(C)n1 [compound 240] | excellent control performance |
| COc1ccc(Cl)c(OC)c1CON=Cc1cc(C)cc(C)n1 [compound 242] | excellent control performance |
